Reference: US20070128217A1 (priority 2003, published 2007)

Columns and labels:
[1] = system: control sera (pooled serum of ten healthy LUMC hospital workers; commercial negative donor pooled serum from the Dutch bloodbank); format: binding, human; parameters: Binding of Control serum LUMC to linear peptides / Binding of Control serum Blood-bank to linear peptides / Binding of Control serum LUMC to looped peptides / Binding of Control Serum Blood-Bank to Looped peptides / Binding of Control serum LUMC to linear peptides of the protein M of SARS-CoV Urbani / Binding of Control serum Blood-bank to linear peptides of the protein M of SARS-CoV Urbani / Binding of Control serum LUMC to looped peptides of the protein M of SARS-CoV Urbani / Binding of Control Serum Blood-Bank to Looped peptides of the protein M of SARS-CoV Urbani: unit not given here
[2] = system: recombinant human anti-SARS-CoV antibody 03-018; format: binding; parameters: Binding of antibody 03-018 to linear peptides of the N protein of SARS-CoV Urbani / Binding of antibody 03-018 to looped/cyclic peptides of the N protein of SARS-CoV Urbani: unit not given here
[3] = system: rabbit serum obtained by immunizing a rabbit with the SARS-CoV strain Frankfurt 1; format: binding; parameters: Binding of a rabbit serum to linear peptides / Binding of a rabbit serum to looped peptides / Rabbit serum linear peptides / Rabbit serum looped peptides / Binding of a rabbit serum to linear peptides of protein N of SARS-CoV Urbani (Rabbit serum linear peptides) / Binding of a rabbit serum to looped/cyclic peptides of protein N of SARS-CoV Urbani (Rabbit serum looped peptides): unit not given here
[4] = system: antibodies in sera from SARS patients (sera 1a, 1b, 2, 6, 37, 62, London, SARS-yellow, SARS-green); format: binding, human; parameters: Binding of serum 6 to linear peptides of protein X1 of SARS-CoV Urbani / Binding of serum 37 to linear peptides of protein X1 of SARS-CoV Urbani / Binding of serum 6 to looped/cyclic peptide (PEPSCAN-ELISA) / Binding of serum 37 to looped/cyclic peptide (PEPSCAN-ELISA) / Binding of serum 37 to looped/cyclic peptides of protein X1 of SARS-CoV Urbani / Binding of serum 6 to linear peptides of protein X2 / Binding of serum 37 to linear peptides of protein X2 / Binding of serum 37 to looped/cyclic peptides of protein X2 of SARS-CoV Urbani / Binding of serum 6 to linear peptides of protein M of SARS-CoV Urbani / Binding of serum 37 to linear peptides of protein M of SARS-CoV Urbani / Binding of serum 6 to looped/cyclic peptides of protein M of SARS-CoV Urbani / Binding of serum 37 to looped/cyclic peptides of protein M of SARS-CoV Urbani / Binding of serum 6 to linear peptides of protein X3 of SARS-CoV Urbani / Binding of serum 37 to linear peptides of protein X3 of SARS-CoV Urbani / Binding of serum 37 to looped/cyclic peptides of protein X3 of SARS-CoV Urbani / Binding of serum 6 to linear peptides of protein X4 of SARS-CoV Urbani / Binding of serum 37 to linear peptides of protein X4 of SARS-CoV Urbani / Binding of serum 37 to looped/cyclic peptides of protein X4 of SARS-CoV Urbani / Binding of serum 6 to linear peptides of protein X5 of SARS-CoV Urbani / Binding of serum 37 to linear peptides of protein X5 of SARS-CoV Urbani / Binding of serum 37 to looped/cyclic peptides of protein X5 of SARS-CoV Urbani / Binding of serum 6 to linear peptides of protein N of SARS-CoV Urbani / Binding of serum 37 to linear peptides of protein N of SARS-CoV Urbani / Binding of serum 6 to linear peptide (PEPSCAN-ELISA) / Binding of serum 1a to looped/cyclic peptides of protein N of SARS-CoV Urbani / Binding of serum 1b to looped/cyclic peptides of protein N of SARS-CoV Urbani / Binding of serum 2 to looped/cyclic peptides of protein N of SARS-CoV Urbani / Binding of serum 6 to looped/cyclic peptides of protein N of SARS-CoV Urbani / Binding of serum 37 to looped/cyclic peptides of protein N of SARS-CoV Urbani / Binding of serum 62 to looped/cyclic peptides of protein N of SARS-CoV Urbani / Binding of serum London to looped/cyclic peptides of protein N of SARS-CoV Urbani / Binding of serum SARS-green to looped/cyclic peptides of protein N of SARS-CoV Urbani: unit not given here

| Sequence | Binding of antibody 03-018 to linear peptides of the N protein of SARS-CoV Urbani [2] | Binding of antibody 03-018 to looped/cyclic peptides of the N protein of SARS-CoV Urbani [2] | Binding of a rabbit serum to linear peptides of protein N of SARS-CoV Urbani (Rabbit serum linear peptides) [3] | Binding of a rabbit serum to looped/cyclic peptides of protein N of SARS-CoV Urbani (Rabbit serum looped peptides) [3] | Binding of serum 1a to linear peptides of protein N of SARS-CoV Urbani [4] | Binding of serum 1a to looped/cyclic peptides of protein N of SARS-CoV Urbani [4] | Binding of serum 1b to linear peptides of protein N of SARS-CoV Urbani [4] | Binding of serum 1b to looped/cyclic peptides of protein N of SARS-CoV Urbani [4] | Binding of serum 2 to linear peptides of protein N of SARS-CoV Urbani [4] | Binding of serum 2 to looped/cyclic peptides of protein N of SARS-CoV Urbani [4] | Binding of serum 6 to linear peptides of protein N of SARS-CoV Urbani [4] | Binding of serum 6 to looped/cyclic peptides of protein N of SARS-CoV Urbani [4] | Binding of serum 37 to linear peptides of protein N of SARS-CoV Urbani [4] | Binding of serum 37 to looped/cyclic peptides of protein N of SARS-CoV Urbani [4] | Binding of serum 62 to linear peptides of protein N of SARS-CoV Urbani [4] | Binding of serum 62 to looped/cyclic peptides of protein N of SARS-CoV Urbani [4] | Binding of serum London to linear peptides of protein N of SARS-CoV Urbani [4] | Binding of serum London to looped/cyclic peptides of protein N of SARS-CoV Urbani [4] | Binding of serum SARS-green to looped/cyclic peptides of protein N of SARS-CoV Urbani [4] | Binding of serum SARS-yellow to looped/cyclic peptides of protein N of SARS-CoV Urbani [4] | further results |
| --- | --- | --- | --- | --- | --- | --- | --- | --- | --- | --- | --- | --- | --- | --- | --- | --- | --- | --- | --- | --- | --- |
| TRRVRGGDGKMKELS | 0.1 | 0.2 | 0.2 | 0.3 | 0.3 | 0.2 | 0.2 | 0.1 | 0.3 | 0.2 | 0.3 | 0.2 | 0.7 | 0.4 | 0.8 | 0.3 | 0.5 | 0.3 | 0.0 | 0.2 | Binding of Control Serum Blood-Bank to Looped peptides [1]: 0.5; Binding of Control serum Blood-bank to linear peptides [1]: 0.7; Binding of Control serum LUMC to linear peptides [1]: 0.8; Binding of Control serum LUMC to looped peptides [1]: 0.5; Binding of serum SARS-green to linear peptides of protein N of SARS-CoV Urbani [4]: 0.3; Binding of serum SARS-yellow to linear peptides of protein N of SARS-CoV Urbani [4]: 0.7 |
| TVTKKSAAEASKKPR | 0.1 | 0.2 | 0.2 | 0.5 |  | 0.2 |  | 0.1 |  | 0.2 |  | 0.1 |  | 0.5 |  | 0.3 |  | 0.3 | 0.0 | 0.2 | Binding of Control Serum Blood-Bank to Looped peptides [1]: 0.4; Binding of Control serum Blood-bank to linear peptides [1]: 1.0; Binding of Control serum LUMC to linear peptides [1]: 1.0; Binding of Control serum LUMC to looped peptides [1]: 0.3; Recognition of the peptide by sera of SARS-CoV infected individuals, and form (linear, looped/cyclic) in which it is recognized [4]: recognized in linear form |
| TVTLLPAADMDDFSR | 0.1 | 0.2 | 0.1 | 0.3 | 0.2 | 0.3 | 0.1 | 0.2 | 0.1 | 0.2 | 0.2 | 0.0 | 0.7 | 0.4 | 0.5 | 0.1 | 0.5 | 0.2 | 0.5 | 0.2 | Control Serum Blood-Bank Looped peptides [1]: 0.3; Control serum Blood-bank linear peptides [1]: 0.6; Control serum LUMC linear peptides [1]: 0.6; Control serum LUMC looped peptides [1]: 0.3; Binding of serum SARS-green to linear peptides of protein N of SARS-CoV Urbani [4]: 0.3; Binding of serum SARS-yellow to linear peptides of protein N of SARS-CoV Urbani [4]: 0.5 |
| TWLTYHGAIKLDDKD | 0.1 | 0.2 | 0.1 | 0.3 | 0.2 | 0.2 | 0.1 | 0.2 | 0.1 | 0.2 | 0.2 | 0.1 | 0.6 | 0.4 | 0.6 | 0.3 | 0.5 | 0.2 | 0.3 | 0.3 | Control Serum Blood-Bank Looped peptides [1]: 0.4; Control serum Blood-bank linear peptides [1]: 0.6; Control serum LUMC linear peptides [1]: 0.6; Control serum LUMC looped peptides [1]: 0.4; Binding of serum SARS-green to linear peptides of protein N of SARS-CoV Urbani [4]: 0.3; Binding of serum SARS-yellow to linear peptides of protein N of SARS-CoV Urbani [4]: 0.6 |
